Entries after “also recorded” stand apart in the source; their conditions may differ.
Assays:
[1] = biological target: mHTT (Mus musculus, UniProt P42859, DEL28-30/G47A/INS49LLPQPQPP/INS60VA/L56P/P40L); experiment: Diffuse mHTT levels in heat shocked STHdh 111/111 striatal cells by immunocytochemistry
Procedure: (§4) Pre-Treatment of striatal cell line - First the medium was removed and new DMEM (DMEM, high glucose, HEPES, no phenol red) medium, supplemented with 10% fetal bovine serum (FBS), 1% Penicillin-Streptomycin, containing 10 µM compound was added. The cells were incubated at 33° C. for 24 hours.
(§5) Heat shock - Cells were heat shocked for 3 hours at 41° C.
(§6) Treatment - Medium was removed and new DMEM (DMEM, high glucose, HEPES, no phenol red) medium, supplemented with 1% fetal bovine serum (FBS), 1% Penicillin-Streptomycin, containing 10 µM compound was added. The cells were incubated at 33° C. for 48 hours.
Staining - Cells were permeabilized with 0.3% Triton X-100 in 4° C. PBS (pH 7.4 from ThermoFisher) for 10 minutes. Then the cells were washed two times with 4° C. PBS. Subsequently, cells are blocked with 3% NGS (normal goat serum from Thermo Fisher) in 4° C. PBS for 1 hour. Cells were incubated with primary antibodies in blocking buffer (PBS, 3% NGS, 0.02% NaN3) over night at 4° C. Primary antibodies were mouse antipolyglutamine monoclonal antibody 3B5H10 (Sigma-Aldrich) at 1:250 dilution and Guinea Pig anti-MAP2 polyclonal antibody (Synaptic Systems) at 1:500 dilution. 3B5H10 binds to diffuse mHTT. Diffuse mHTT is a monomeric and small oligomeric mHTT.
Cells were washed 2 times with 4° C. PBS, and then incubated with secondary antibodies at 1:2000 dilution in blocking buffer for 1 hour at room temperature. […] Cells were washed 2 times with 4° C. PBS, and then the nuclei were counterstain with DAPI (ThermoFisher) for 10 min at room temperature in the dark. Cells were washed 2 times with 4° C. PBS, and then 4° C. PBS was added to cells and then images were acquired.
Fluorescence Imaging - Imaging sessions were performed on a confocal microscope system (Carl Zeiss Microscopy) equipped with a dual spinning disk unit (Yokogawa). All components of the imaging system were controlled via the ZEN 2 software suite (Carl Zeiss Microscopy). The laser lines used were 405 nm, 488 nm and 639 nm to excite DAPI or the respective fluorophores. […] Nested t test was performed to calculate the significance amongst repeated measurements using GraphPad Prism software.
EC 50 value was determined with non-linear regression.

[2] = test system: phospho-Tau (Ser396); experiment: Phospho-Tau (Ser396) levels in STHdh 7/7 cells by immunocytochemistry; format: cell-based, mouse
Procedure: (§1) Effect of Compound 4 on Phospho-Tau (Ser396) levels - ST HDH Q7/7 (CH00097, Coriell Institute) striatal derived cell line from a knock in transgenic mouse containing HTT loci with a humanized Exon 1 containing 7 polyglutamine repeats. Immunocytochemistry was conducted as described in Example 33 with the exception that instead of 3B5H10 antibody for staining mHTT, phospho-Tau (Ser396) polyclonal antibody (ThermoFisher, Catalog 44-752G) was used to stain phospho-Tau (Ser396).

[3] = test system: phospho-Tau (Ser404); experiment: Phospho-Tau (Ser404) levels in STHdh 7/7 cells by immunocytochemistry; format: cell-based, mouse
From the text: as §1, with “repeats. Diffuse mHTT quantified with immunocytochemistry” for “repeats. Immunocytochemistry was conducted”, “phospho-Tau (Ser404)” for “phospho-Tau (Ser396)”, “Catalog 44-758G)” for “Catalog 44-752G)”, “phospho-Tau (Ser396) and no heat shock was used.” for “phospho-Tau (Ser396).”

[4] = Pharmacokinetics, plasma and brain concentration by UHPLC-TOF; format: in vivo, mice; conditions: mouse, in vivo
Procedure: Compound 22 is an analog of Compound 7. […] Compound 22 pharmacokinetic properties was measured in three male CD1 mice at several timepoints. Compound 22 was dissolved in 10% DMSO, 10%, cremaphor, and 80% saline. The tested dose was 33.3 mg/kg body weight. Brain tissue was homogenized and protein precipitated with acetonitrile. […] As such, Compound 22 was selected for testing in an animal model of HD the R6/2 model. As described below, Compound 22 and its analogs were further tested for their effects on striatal cell viability and effects of mHTT levels.

[5] = test system: zebrafish larvae; experiment: Zebrafish MPP+ motility model, photomotor assay; format: in vivo
Procedure: MPP+ selectively targets dopaminergic neurons; the putative mechanism is induction of K+ efflux, cell membrane hyperpolarization and inhibition of neuronal firing. This ultimately leads to an inhibition of complex I, a decrease in ATP production and promotion of the generation of reactive oxygen species upon accumulation in the mitochondria (3). The observed phenotype following exposure to 500 µM from 24 hours post fertilization (hpf) to 120 hpf is characterized by a decrease in movement during lights-on phases of a photomotor assay. In unpublished data below, representative locomotor perturbations of the distance moved and movement frequency is shown.
(§2) Six groups were included in each experiment. Immediately after spawning, 40 embryos per group were allocated to a 24-well plate and system water (solvent) was added to all wells. For assessment of neuroprotective potential, Compound 4 was added for a final concentration of 1, 10 and 20 µM (column 4-6). From the following day at 24 hpf, Compound 4 was co-incubated with 500 µM MPP+. MPP+ was prepared immediately prior to incubation and solutions were changed daily. At 120 hpf, drug treatment and MPP+ exposure was ceased and a 3X wash was performed with system water. Larvae were then relocated to 96-well plates for behavioral recording and placed in a separate recording room for 24-hour acclimation. Prior to behavioral recording, wells were fully replenished system water.
(§3) Naive group was exposed to solvent only. Vehicle group was exposed to solvent and vehicle corresponding to the vehicle of 20 µM drug solution (0.02% DMSO). MPP+ positive control was exposed to solvent and 500 µM MPP+. All compound groups were treated with the respective vehicle and respective concentration of compound 4.
Behavioral data was recorded from 1 p.m. on 6 dpf until shortly after wakening on 7 dpf. The recording consisted of a photomotor assay in which lights switch off and on in 30-minute intervals between 1 p.m. and 6 p.m., producing a consistent photomotor response. […] Upon lights being turned on again, the larvae cease movement followed by a return to baseline. This cycle is repeated five times. Following the last lights-off phase, constant illumination is presented until lights turn off at 10 p.m. for the night. Lights turn on again at 8 a.m. the following day.
Average movement frequency was measured during 30-minute lights-on phases of photomotor assay. Movement bouts were defined as initiated when velocity exceeded a threshold of 2 mm/s and ceased when velocity fell below 1 mm/s.
Distance moved (mm) was defined as the average distance moved during 30-minute lights-on phases of photomotor assay.
Data was obtained using EthoVision XT (Version 11.5.2016, Noldus) and exported to Microsoft Excel for data analysis. […]

[6] = test system: STHdh 111/111; experiment: Morphology of striatal cells expressing mutated huntingtin; format: cell-based, mouse; conditions: versus not treated STHdh 111/111
[7] = test system: Exon1 Q46; experiment: Circular dichroism of Exon1 Q46, predominantly α-helical state; format: biochemical; conditions: Exon1 Q46; conc. compound 0.647 µM
Procedure: Protein samples were diluted with buffer to 7.5 µM prior to Circular Dichroism (CD) measurements. Measurements were conducted at room temperature.
Four spectra at each measurement were taken every 1 nm from 200 to 260 nm, scanning at 50 nm/min with an averaging time of 1 sec. Spectra were obtained from samples in 20 mM phosphate, pH 7.4. Ten scans were averaged for each sample spectrum
Single-wavelength readings at 222 nm were obtained. After subtraction of the Trx contribution, the α-helical content of Httex1 was estimated from its mean residue ellipticity (MREHttex1) at 222 nm. This calculation was conducted as described by Bravo-Arredondo (Bravo-Arredondo, J.M. et al., J Biol Chem. 2018 Dec 21;293(51):19613-19623).
MRE Exon-1 […] and Q46 (Mean Residue Ellipticity) was measured every 1 sec for 300 sec; the 301 readings for each sample were averaged and MRE Trx subtracted. The number of amino acids in each sample to experience a change in helicity was estimated using a previously developed helix-coil transition model, which gave the change in fraction of helicity (ΔfHelix) by the following equation: […]
where MRE Exon1 Q26 or Q46 (MREHttex1 in the formula) describes the helix-coil transition, obtained from the difference between MRE Eon1 Q26 or Q46 at 222 nm of the fusion protein at the given temperature (in our case 37° C.) and the product of MRE Trx at 222 nm at the same temperature and the fraction of residues comprised by Trx in that particular construct, and
In order to calculate an equilibrium of the two states model, percent α-helicity was calculated using the relation of MREHttex1 = 0 and -34700 (deg cm^2 dmol^-1) for 0% and 100% helicity, respectively.
The CD measurements protocol for Compound 101 was the same as outlined above except that from 206 nm - 210 nm and 220 nm - 224 nm, the step size was 0.2 nm, and the bandwidth was 1 nm.

[8] = test system: STHdh 111/111 striatal cells; experiment: Cell viability (CellTiter Glo) of heat shocked STHdh 111/111 striatal cells; format: cell-based, mouse; conditions: Mus musculus, STHdh 111/111; 10 µM; 48 hours treatment; read-out: Cell Viability striatal cells 3h heat shocked
Procedure: Cell culture - ST HDH Q111/111 (CH00095, Coriell Institute) striatal derived cell line were grown at 33° C. in DMEM (Sigma-Aldrich), supplemented with 10% fetal bovine serum (FBS), 1% Penicillin-Streptomycin (ThermoFisher Scientific), and 0.4 mg/ml G418 (Geneticin; Invitrogen). ST HDH Q111/111 are mouse striatal cells with polyQ length of 1111.
as §4, §5, §6
Cell Viability - Cell viability was measured according to manufacturer recommendations with CellTiter Glo (Promega). 96-well plates for used either for cell viability determination or cell staining.

[9] = test system: zebrafish larvae; experiment: Zebrafish MPP+ model, sleep parameters; format: in vivo; conditions: co-incubation with MPP+
Procedure: as §2, §3
Behavioral data was recorded from 1 p.m. on 6 dpf until shortly after wakening on 7 dpf. The recording consisted of a photomotor assay in which lights switch off and on in 30-minute intervals between 1 p.m. and 6 p.m., producing a consistent photomotor response. […]

[10] = 1, 10 and 20 µM with 500 µM MPP+

Sequence of mHTT (P42859 with tags, fused parts or gaps DEL28-30/P40L/G47A/INS49LLPQPQPP/L56P/INS60VA): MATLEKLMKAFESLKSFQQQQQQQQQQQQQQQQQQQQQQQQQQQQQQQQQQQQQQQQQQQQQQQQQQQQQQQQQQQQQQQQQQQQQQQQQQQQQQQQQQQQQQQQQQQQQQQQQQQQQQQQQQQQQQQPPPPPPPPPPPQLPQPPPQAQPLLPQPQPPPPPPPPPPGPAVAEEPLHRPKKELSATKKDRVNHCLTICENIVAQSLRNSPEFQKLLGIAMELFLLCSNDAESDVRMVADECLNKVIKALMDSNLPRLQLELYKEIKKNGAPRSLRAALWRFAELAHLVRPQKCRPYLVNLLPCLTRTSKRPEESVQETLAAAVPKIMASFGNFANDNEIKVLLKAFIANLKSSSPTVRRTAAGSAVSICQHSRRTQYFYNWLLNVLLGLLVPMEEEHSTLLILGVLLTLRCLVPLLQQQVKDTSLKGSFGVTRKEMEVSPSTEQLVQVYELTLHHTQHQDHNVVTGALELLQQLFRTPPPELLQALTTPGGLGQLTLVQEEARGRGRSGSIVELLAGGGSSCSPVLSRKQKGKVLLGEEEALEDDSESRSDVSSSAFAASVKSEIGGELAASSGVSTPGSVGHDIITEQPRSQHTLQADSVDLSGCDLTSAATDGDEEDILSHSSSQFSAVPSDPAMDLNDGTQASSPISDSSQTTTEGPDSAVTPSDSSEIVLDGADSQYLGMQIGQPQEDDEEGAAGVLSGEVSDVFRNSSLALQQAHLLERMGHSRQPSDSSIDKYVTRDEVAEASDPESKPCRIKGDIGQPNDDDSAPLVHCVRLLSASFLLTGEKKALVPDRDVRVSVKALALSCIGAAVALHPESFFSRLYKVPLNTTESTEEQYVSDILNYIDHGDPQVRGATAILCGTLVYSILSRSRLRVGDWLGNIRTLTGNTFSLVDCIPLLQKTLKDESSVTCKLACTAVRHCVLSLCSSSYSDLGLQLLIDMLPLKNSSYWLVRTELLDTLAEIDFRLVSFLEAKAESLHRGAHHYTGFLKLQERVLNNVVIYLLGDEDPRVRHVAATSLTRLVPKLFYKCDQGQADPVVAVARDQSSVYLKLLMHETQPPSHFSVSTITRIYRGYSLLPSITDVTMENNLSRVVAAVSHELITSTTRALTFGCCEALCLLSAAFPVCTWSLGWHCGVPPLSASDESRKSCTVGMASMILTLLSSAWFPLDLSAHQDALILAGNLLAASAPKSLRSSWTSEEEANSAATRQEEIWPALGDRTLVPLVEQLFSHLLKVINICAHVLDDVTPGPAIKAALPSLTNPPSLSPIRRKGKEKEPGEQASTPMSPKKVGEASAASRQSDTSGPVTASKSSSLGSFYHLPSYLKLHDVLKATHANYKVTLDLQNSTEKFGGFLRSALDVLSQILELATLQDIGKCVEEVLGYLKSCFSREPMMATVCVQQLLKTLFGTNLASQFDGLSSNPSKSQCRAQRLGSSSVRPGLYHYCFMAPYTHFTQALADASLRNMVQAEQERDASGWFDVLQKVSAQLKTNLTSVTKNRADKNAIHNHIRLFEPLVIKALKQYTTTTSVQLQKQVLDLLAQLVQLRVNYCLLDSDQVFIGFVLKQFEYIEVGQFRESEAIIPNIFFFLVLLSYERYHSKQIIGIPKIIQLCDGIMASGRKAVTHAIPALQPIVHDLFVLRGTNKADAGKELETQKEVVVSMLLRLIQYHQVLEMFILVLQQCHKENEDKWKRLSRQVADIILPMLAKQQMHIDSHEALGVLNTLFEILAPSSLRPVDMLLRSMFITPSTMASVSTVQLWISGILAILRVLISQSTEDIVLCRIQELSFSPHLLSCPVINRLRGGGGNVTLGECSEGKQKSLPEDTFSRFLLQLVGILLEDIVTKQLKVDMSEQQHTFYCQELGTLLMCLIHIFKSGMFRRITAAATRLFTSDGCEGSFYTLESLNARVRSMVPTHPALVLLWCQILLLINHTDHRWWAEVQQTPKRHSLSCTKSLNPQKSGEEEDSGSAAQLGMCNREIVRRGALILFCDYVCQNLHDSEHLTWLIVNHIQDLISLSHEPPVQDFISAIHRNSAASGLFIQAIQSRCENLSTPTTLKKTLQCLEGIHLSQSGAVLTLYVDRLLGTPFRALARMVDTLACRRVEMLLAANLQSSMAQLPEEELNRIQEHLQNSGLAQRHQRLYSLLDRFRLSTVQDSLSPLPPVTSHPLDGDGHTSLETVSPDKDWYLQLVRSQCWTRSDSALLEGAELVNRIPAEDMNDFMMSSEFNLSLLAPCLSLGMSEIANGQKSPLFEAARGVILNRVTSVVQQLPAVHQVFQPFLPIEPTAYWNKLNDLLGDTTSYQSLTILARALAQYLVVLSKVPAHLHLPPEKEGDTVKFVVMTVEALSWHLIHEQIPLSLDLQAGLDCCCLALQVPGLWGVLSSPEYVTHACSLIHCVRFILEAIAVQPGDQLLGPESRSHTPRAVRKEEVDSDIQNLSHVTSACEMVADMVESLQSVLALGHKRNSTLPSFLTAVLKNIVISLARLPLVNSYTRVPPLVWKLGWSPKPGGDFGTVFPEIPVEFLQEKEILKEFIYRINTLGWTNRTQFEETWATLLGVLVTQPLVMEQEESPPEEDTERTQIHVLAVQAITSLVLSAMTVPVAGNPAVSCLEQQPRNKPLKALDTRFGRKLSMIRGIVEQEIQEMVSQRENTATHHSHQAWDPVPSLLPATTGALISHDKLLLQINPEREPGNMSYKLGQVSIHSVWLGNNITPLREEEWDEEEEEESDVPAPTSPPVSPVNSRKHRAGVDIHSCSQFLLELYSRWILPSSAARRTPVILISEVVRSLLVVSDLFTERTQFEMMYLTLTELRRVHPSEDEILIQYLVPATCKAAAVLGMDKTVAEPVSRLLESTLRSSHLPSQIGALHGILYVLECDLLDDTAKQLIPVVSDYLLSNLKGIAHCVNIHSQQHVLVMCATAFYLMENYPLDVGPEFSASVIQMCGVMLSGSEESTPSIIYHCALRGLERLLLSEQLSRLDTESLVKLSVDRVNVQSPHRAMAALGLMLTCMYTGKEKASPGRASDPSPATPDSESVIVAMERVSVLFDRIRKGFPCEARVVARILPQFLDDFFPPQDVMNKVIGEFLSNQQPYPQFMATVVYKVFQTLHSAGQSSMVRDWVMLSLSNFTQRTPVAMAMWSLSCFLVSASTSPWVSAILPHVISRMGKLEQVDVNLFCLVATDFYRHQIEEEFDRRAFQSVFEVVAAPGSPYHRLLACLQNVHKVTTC

CCc1c(C)[nH]c2ccc(C(=O)NCCN(CC)CC)cc12 [Compound 4, N-(2-(diethylamino)ethyl)-3-ethyl-2-methyl-1H-indole-5-carboxamide]
EC50 [1]: 130 nM
Diffuse mHTT reduced by ([1]; STHdh 111/111, in comparison to untreated cells): 68%
Phospho-Tau (Ser396) reduced by ([2]; STHdh 7/7, 10 µM, in comparison to untreated cells): 26.3%
Phospho-Tau (Ser396) reduction ([2]; STHdh 7/7 exposed to 10 mM ammonium chloride, 5 µM): could not reduce
Phospho-Tau (Ser396) reduction ([2]; STHdh 7/7 exposed to ammonium chloride, 10 µM): 15.2%
Phospho-Tau (Ser404) reduced by ([3]; STHdh 7/7, 10 µM, no heat shock, in comparison to untreated cells): 40%
Phospho-Tau (Ser404) reduction ([3]; STHdh 7/7 exposed to 10 mM ammonium chloride): could not reduce
crossing of the blood brain barrier [4]: can cross the blood brain barrier
distance moved, drug treatment groups compared to MPP+ [5, 10]: no significant difference
movement frequency, drug treatment groups compared to MPP+ [5, 10]: no significant difference
overall movement during assessment of neuroprotection ([5]; concentrations ~10 µM and ~1 µM with MPP+): subtle increase in overall movement
morphology of STHdh 111/111 [6]: improved cell viability, dendrite outgrowth and increased cell size
Fraction Helix fH (%) [7]: 20.0%
viability at 10 µM [8]: 125%
sleep parameters (sleep fragmentation, sleep ratio, velocity, wake bout duration, sleep bout duration) [9]: No statistically significant difference; also recorded: does neither reduce nor increase sleep

From patent US20230218573A1, “INDOLE COMPOUNDS FOR THE TREATMENT OF NEURODEGENERATIVE DISEASES” (GALYAN BIO, INC., priority 2020, published 2023)
